Like-named read-outs stand apart in the source and are kept apart here. Numbered stars: 1 amine (or outer) side, 2 acyl side, 3 side chain; on linkers, the order of the positions; unused ones are H or OH. Bridge positions count the residues as written; N and C are the ends. Square brackets hold non-standard residues; d marks the D form. Peptide text beside a SMILES is read from it. * marks the point of attachment. X1 = CN1C[C@H](CSCCN(CCSC[C@@H]2C[C@@H]3c4cccc5[nH]cc(c45)C[C@H]3N(C)C2)[C@H](CCCCN[*:2])C(=O)[*:1])C[C@@H]2c3cccc4[nH]cc(c34)C[C@H]21; X2 = CN1C[C@H](CSCC(=O)*)C[C@@H]2c3cccc4[nH]cc(c34)C[C@H]21; 4Pal = N[C@@H](Cc1ccncc1)C(=O)O
Molecular target: hSSTR2 (Homo sapiens (Human), UniProt P30874)
Test: Intracellular calcium mobilization assay (FLIPR Calcium 4), hSSTR2;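 note: agonist activity read as intracellular calcium rise in cells expressing human SSTR2, loaded with a calcium-sensitive dye for 60 min at 37 °C, measured by FLIPR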
Assay type: cell-based
Conditions: for Emax: read-out: hSSTR2 % Emax ± SEM; for improvement in EC50 over Reference Compound A: Student's t-test, one-tailed, p <0.05

hSSTR2, sequence (P30874 whole entry): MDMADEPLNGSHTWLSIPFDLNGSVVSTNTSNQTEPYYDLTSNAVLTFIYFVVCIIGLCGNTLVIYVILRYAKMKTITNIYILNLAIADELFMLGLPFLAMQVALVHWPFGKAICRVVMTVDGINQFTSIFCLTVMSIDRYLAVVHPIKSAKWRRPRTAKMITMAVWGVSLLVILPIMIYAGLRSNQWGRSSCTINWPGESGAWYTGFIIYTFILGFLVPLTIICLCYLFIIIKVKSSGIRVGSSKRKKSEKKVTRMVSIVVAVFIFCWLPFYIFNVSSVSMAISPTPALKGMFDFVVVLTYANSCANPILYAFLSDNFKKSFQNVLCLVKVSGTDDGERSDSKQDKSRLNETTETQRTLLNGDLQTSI

SMILES | Emax | Emax (maximal effect in percentage of the maximal effect of SRIF-14) | improvement in EC50 over Reference Compound A
C[C@@H](O)[C@@H]1NC(=O)[C@H](CCCCN)NC(=O)[C@@H](Cc2c[nH]c3ccccc23)NC(=O)[C@H](Cc2ccncc2)NC(=O)[C@H](Cc2ccccc2)NC(=O)[C@H](CCCNC(=N)N)NC(=O)[C@H](NC[C@H](CCCCNC(=O)C[S+]([O-])C[C@@H]2C[C@@H]3c4cccc5[nH]cc(c45)C[C@H]3N(C)C2)NC(=O)C[S+]([O-])C[C@@H]2C[C@@H]3c4cccc5[nH]cc(c45)C[C@H]3N(C)C2)CCCCNC(=O)[C@H](Cc2ccc(O)cc2)NC1=O (stereo partly drawn) [Compound 16, Dop1(SO)-Lys[Dop1(SO)]-psi(CH2NH)-cyclo(DLys-Arg-Phe-4Pal-DTrp-Lys-Thr-Tyr)] | 103 ± 2.3% | – | –
C[C@@H](O)[C@@H]1NC(=O)[C@H](CCCCN)NC(=O)[C@@H](Cc2c[nH]c3ccccc23)NC(=O)[C@H](Cc2ccccc2)NC(=O)[C@H](Cc2ccccc2)NC(=O)[C@H](CCCNC(=N)N)NC(=O)[C@H](NCCCCC[C@@H]2C[C@@H]3c4cccc5[nH]cc(c45)C[C@H]3N(C)C2)CCCCNC(=O)[C@H](Cc2ccc(F)cc2)NC1=O [Compound 3, (D-6-methyl-8β-ergolinyl)-pentanoyl-psi(CH2NH)-cyclo(DLys-Arg-Phe-Phe-DTrp-Lys-Thr-4FPhe)] | 98.8 ± 19.2% | – | –
C[C@@H](O)[C@@H]1NC(=O)[C@H](CCCCN)NC(=O)[C@@H](Cc2c[nH]c3ccccc23)NC(=O)[C@H](Cc2ccncc2)NC(=O)[C@H](Cc2ccccc2)NC(=O)[C@H](CCCNC(=N)N)NC(=O)[C@H](N(CCSC[C@@H]2C[C@@H]3c4cccc5[nH]cc(c45)C[C@H]3N(C)C2)CCSC[C@@H]2C[C@@H]3c4cccc5[nH]cc(c45)C[C@H]3N(C)C2)CCCCNC(=O)[C@H](Cc2ccc(O)cc2)NC1=O [Compound 35, bis[Dop1-psi(CH2N)]-cyclo(DLys-Arg-Phe-4Pal-DTrp-Lys-Thr-Tyr)] (RF[4Pal][dW]KTY; linker N-C via X1) | – | 91.2 ± 11% | –
C[C@@H](O)[C@@H]1NC(=O)[C@H](CCCCN)NC(=O)[C@@H](Cc2c[nH]c3ccccc23)NC(=O)[C@H](Cc2ccncc2)NC(=O)[C@H](Cc2ccccc2)NC(=O)[C@H](CCCNC(=N)N)NC(=O)[C@H](N(CCSC[C@@H]2C[C@@H]3c4cccc5[nH]cc(c45)C[C@H]3N(C)C2)CCSC[C@@H]2C[C@@H]3c4cccc5[nH]cc(c45)C[C@H]3N(C)C2)CCCCNC(=O)[C@H](Cc2ccccc2)NC1=O [Compound 29, bis[Dop1-psi(CH2N)]-cyclo(DLys-Arg-Phe-4Pal-DTrp-Lys-Thr-Phe)] (RF[4Pal][dW]KTF; linker N-C via X1) | 97 ± 4.9% | – | statistically significant improvement
CC(=O)N(CCCN(C(C)=O)[C@@H]1CCCCNC(=O)[C@H](Cc2ccc(F)cc2)NC(=O)[C@H]([C@@H](C)O)NC(=O)[C@H](CCCCN)NC(=O)[C@@H](Cc2c[nH]c3ccccc23)NC(=O)[C@H](Cc2ccccc2)NC(=O)[C@H](Cc2ccccc2)NC(=O)[C@H](CCCNC(=N)N)NC1=O)C[C@@H]1C[C@@H]2c3cccc4[nH]cc(c34)C[C@H]2N(C)C1 [Compound 28, 3-[N-acetyl-N-(D-6-methyl-8β-ergolinylmethyl)]-aminopropionyl-psi(CH2NAc)-cyclo(DLys-Arg-Phe-Phe-DTrp-Lys-Thr-4FPhe)] | 98.7 ± 2% | – | –
C[C@@H](O)[C@@H]1NC(=O)[C@H](CCCCN)NC(=O)[C@@H](Cc2c[nH]c3ccccc23)NC(=O)[C@H](Cc2ccncc2)NC(=O)[C@H](Cc2ccccc2)NC(=O)[C@H](CCCNC(=N)N)NC(=O)[C@H](NC(=O)CSC[C@@H]2C[C@@H]3c4cccc5[nH]cc(c45)C[C@H]3N(C)C2)CCCCNC(=O)[C@H](Cc2ccc(O)cc2)NC1=O [Compound 25, Dop1-cyclo(DLys-Arg-Phe-4Pal-DTrp-Lys-Thr-Tyr)] (X2-[dK]RF[4Pal][dW]KTY; lactam 1-C) | 93.9 ± 6.7% | – | statistically significant improvement
